Results as given in patent US10316017B2, “COT modulators and methods of use thereof” (Gilead Sciences, Inc., priority 2015, dated 2019).
Like-named read-outs stand apart in the source and are kept apart here.

Columns and labels:
[1] = target: T1, human Cot catalytic domain (30-397 amino acids) (Homo sapiens, UniProt P41279); test: High Throughput Cot Biochemical Assay (KinEASE TR-FRET); details: read-out: IC50 HTRF
T1 construct: Purified recombinant human Cot catalytic domain (30-397 amino acids) was purchased from Cama Biosciences; purchased Cama Biosciences (so in the source)
T1 sequence (P41279 30-397): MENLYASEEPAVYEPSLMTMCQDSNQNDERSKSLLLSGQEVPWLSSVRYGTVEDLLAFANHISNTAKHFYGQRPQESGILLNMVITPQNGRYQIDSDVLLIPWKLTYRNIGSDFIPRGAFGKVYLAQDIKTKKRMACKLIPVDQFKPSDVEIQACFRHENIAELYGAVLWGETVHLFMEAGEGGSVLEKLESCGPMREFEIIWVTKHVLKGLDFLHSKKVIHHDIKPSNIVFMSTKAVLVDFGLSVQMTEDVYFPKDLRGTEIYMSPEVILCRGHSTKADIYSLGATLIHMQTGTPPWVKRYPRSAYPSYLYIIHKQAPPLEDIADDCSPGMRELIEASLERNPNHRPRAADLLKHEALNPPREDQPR
Summary of the method: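 TR-FRET (KinEASE) read-out: Eu-labelled phospho-specific antibody binds XL665-tagged STK3 peptide (1 μM) phosphorylated by 5 nM human Cot kinase domain (residues 30-397). Reaction at 400 μM ATP, pH 7.0 MOPS buffer with 10 mM MgOAc, 1 mM DTT and 0.1% DMSO.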

[2] = system: TNFα production in LPS-stimulated human monocytes; test: Cot Monocyte TNFα Cell Based Assay; details: Homo sapiens, Monocyte, TNFα in LPS-stimulated human monocytes; read-out: EC50 TNF
Summary of the method: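 TNFα release quantified by two-antibody TR-FRET, normalised to unstimulated (0%) and LPS-stimulated (100%) wells. Cells got a 1 h compound exposure at 37° C in 0.5% DMSO before 4 h challenge with 50 pg/ml LPS, at 5,000 cells/well.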

[3] = Cot KinEASE TR-FRET (HTRF) biochemical assay, 400 μM ATP
[4] = Cot biochemical HTRF (KinEASE TR-FRET) assay

CC(C)C(C)(C)CNc1c(C#N)cnc2c(Cl)cc(N[C@@H](c3ccc(F)cc3)c3c[nH]nn3)cc12 [Example 399, (S)-8-chloro-6-(((4-fluorophenyl)(1H-1,2,3-triazol-4-yl)methyl)amino)-4-((2,2,3-trimethylbutyl)amino) quinoline-3-carbonitrile]
IC50 [1, 3]: 0.038 µM
EC50 [2]: 0.891 µM

CC(C)(C)CNc1c(C#N)cnc2c(Cl)cc(N[C@@H](c3ccc(F)cc3)c3c[nH]nn3)cc12 [Example 400, (S)-8-chloro-6-(((4-fluorophenyl)(1H-1,2,3-triazol-4-yl)methyl)amino)-4-(neopentylamino) quinoline-3-carbonitrile]
IC50 [1, 3]: 0.047 µM
EC50 [2]: 1.23 µM

N#Cc1cnc2c(Cl)cc(N[C@@H](c3ccc(F)cc3)c3c[nH]nn3)cc2c1NCc1cscn1 [Example 401, (S)-8-chloro-6-(((4-fluorophenyl)(1H-1,2,3-triazol-4-yl)methyl)amino)-4-((thiazol-4-ylmethyl)amino)quinoline-3-carbonitrile]
IC50 [1, 3]: 0.758 µM
EC50 [2]: 4.79 µM

N#Cc1cnc2c(Cl)cc(N[C@@H](c3ccc(F)cc3)c3c[nH]nn3)cc2c1NCc1nccs1 [Example 402, (S)-8-chloro-6-(((4-fluorophenyl)(1H-1,2,3-triazol-4-yl)methyl)amino)-4-((thiazol-2-ylmethyl)amino)quinoline-3-carbonitrile]
IC50 [1, 3]: 0.353 µM
EC50 [2]: 3.65 µM

CC1(n2cc([C@@H](Nc3cc(Cl)c4ncc(C#N)c(Nc5cnc(F)c(F)c5)c4c3)c3ccc(F)cc3)nn2)COC1 [Example 403, (S)-8-chloro-4-((5,6-difluoropyridin-3-yl)amino)-6-(((4-fluorophenyl) (1-(3-methyloxetan-3-yl)-1H-1,2,3-triazol-4-yl)methyl)amino)quinoline-3-carbonitrile]
IC50 [1, 3]: 0.015 µM
EC50 [2]: 0.532 µM

N#Cc1cnc2c(Cl)cc(N[C@H](c3c[nH]nn3)c3ccccc3C(F)F)cc2c1Nc1cnc(F)c(F)c1 [Example 404, (S)-8-chloro-6-(((2-(difluoromethyl)phenyl) (1H-1,2,3-triazol-4-yl)methyl)amino)-4-((5,6-difluoropyridin-3-yl)amino)quinoline-3-carbonitrile]
IC50 [1, 4]: 0.034 µM
EC50 [2]: 0.57 µM

N#Cc1cnc2c(Cl)cc(N[C@@H](c3ccc(F)cc3)c3cn(CC4(F)COC4)nn3)cc2c1Nc1cnc(F)c(F)c1 [Example 405, (S)-8-chloro-4-((5,6-difluoropyridin-3-yl)amino)-6-(((1-((3-fluorooxetan-3-yl)methyl)-1H-1,2,3-triazol-4-yl)(4-fluorophenyl)methyl)amino) quinoline-3-carbonitrile]
IC50 [1, 4]: 0.069 µM
EC50 [2]: 2.31 µM

C[C@@H](n1cc([C@@H](Nc2cc(Cl)c3ncc(C#N)c(Nc4cnc(F)c(F)c4)c3c2)c2ccc(F)cc2)nn1)C(F)(F)F [Example 406, 8-chloro-4-((5,6-difluoropyridin-3-yl)amino)-6-(((S)-(4-fluorophenyl)(1-((R)-1,1,1-trifluoropropan-2-yl)-1H-1,2,3-triazol-4-yl)methyl)amino)quinoline-3-carbonitrile]
IC50 [1, 4]: 0.212 µM
EC50 [2]: 4.43 µM

CC(C(F)F)n1cc([C@@H](Nc2cc(Cl)c3ncc(C#N)c(Nc4cnc(F)c(F)c4)c3c2)c2ccc(F)cc2)nn1 (stereo partly drawn) [Example 407, 8-chloro-6-(((1S)-(1-(1,1-difluoropropan-2-yl)-1H-1,2,3-triazol-4-yl)(4-fluorophenyl)methyl)amino)-4-((5,6-difluoropyridin-3-yl)amino)quinoline-3-carbonitrile]
IC50 [1, 4]: 0.047 µM
EC50 [2]: 1.53 µM

N#Cc1cnc2c(Cl)cc(N[C@@H](c3ccc(F)cc3)c3cn(-c4ccccc4)nn3)cc2c1Nc1cnc(F)c(F)c1 [Example 408, (S)-8-chloro-4-((5,6-difluoropyridin-3-yl)amino)-6-(((4-fluorophenyl) (1-phenyl-1H-1,2,3-triazol-4-yl)methyl)amino)quinoline-3-carbonitrile]
IC50 [1, 4]: 0.041 µM
EC50 [2]: 0.779 µM

N#Cc1cnc2c(Cl)cc(N[C@@H](c3ccc(F)cc3)c3cn(CC(F)F)nn3)cc2c1Nc1cnc(F)c(F)c1 [Example 409, (S)-8-chloro-6-(((1-(2,2-difluoroethyl)-1H-1,2,3-triazol-4-yl)(4-fluorophenyl)methyl)amino)-4-((5,6-difluoropyridin-3-yl)amino)quinoline-3-carbonitrile]
IC50 [1, 4]: 0.023 µM
EC50 [2]: 0.776 µM

N#CCn1cc([C@@H](Nc2cc(Cl)c3ncc(C#N)c(Nc4cnc(F)c(F)c4)c3c2)c2ccc(F)cc2)nn1 [Example 410, (S)-8-chloro-6-(((1-(cyanomethyl)-1H-1,2,3-triazol-4-yl)(4-fluorophenyl)methyl)amino)-4-((5,6-difluoropyridin-3-yl)amino)quinoline-3-carbonitrile]
IC50 [1, 4]: 0.03 µM
EC50 [2]: 0.723 µM

CC(C)(C)Cn1cc([C@@H](Nc2cc(Cl)c3ncc(C#N)c(Nc4cnc(F)c(F)c4)c3c2)c2ccc(F)cc2)nn1 [Example 411, (S)-8-chloro-4-((5,6-difluoropyridin-3-yl)amino)-6-(((4-fluorophenyl)(1-neopentyl-1H-1,2,3-triazol-4-yl)methyl)amino)quinoline-3-carbonitrile]
IC50 [1, 4]: 0.111 µM
EC50 [2]: 3.41 µM

CC1(Cn2cc([C@@H](Nc3cc(Cl)c4ncc(C#N)c(Nc5cnc(F)c(F)c5)c4c3)c3ccc(F)cc3)nn2)CC1 [Example 412, (S)-8-chloro-4-((5,6-difluoropyridin-3-yl)amino)-6-(((4-fluorophenyl)(1-((1-methylcyclopropyl)methyl)-1H-1,2,3-triazol-4-yl)methyl)amino)quinoline-3-carbonitrile]
IC50 [1, 4]: 0.05 µM
EC50 [2]: 2.23 µM

CC1(Cn2cc([C@@H](Nc3cc(Cl)c4ncc(C#N)c(Nc5cnc(F)c(F)c5)c4c3)c3ccc(F)cc3)nn2)CCC1 [Example 413]
IC50 [1, 4]: 0.093 µM
EC50 [2]: 2.75 µM

N#Cc1cnc2c(Cl)cc(N[C@@H](c3ccc(F)cc3)c3cn(C4CC4)nn3)cc2c1Nc1cnc(F)c(Cl)c1 [Example 414, (S)-8-chloro-4-((5-chloro-6-fluoropyridin-3-yl)amino)-6-(((1-cyclopropyl-1H-1,2,3-triazol-4-yl)(4-fluorophenyl)methyl)amino) quinoline-3-carbonitrile]
IC50 [1, 4]: 0.004 µM
EC50 [2]: 0.14 µM

[2H][C@](Nc1cc(Cl)c2ncc(C#N)c(N[C@H](CC)c3ccccc3)c2c1)(c1ccc(F)cc1)c1c[nH]nn1 [Example 415, 8-chloro-6-(((S)-(4-fluorophenyl)(1H-1,2,3-triazol-4-yl)methyl-d)amino)-4-(((R)-1-phenylpropyl)amino)quinoline-3-carbonitrile]
IC50 [1, 4]: 0.009 µM
EC50 [2]: 0.409 µM

CC[C@@H](Nc1c(C#N)cnc2c(Cl)cc(N[C@@H](c3ccc(F)cc3)c3cn(C)nn3)cc12)c1ccccc1 [Example 416, 8-chloro-6-(((S)-(4-fluorophenyl)(1-methyl-1H-1,2,3-triazol-4-yl)methyl)amino)-4-(((R)-1-phenylpropyl)amino) quinoline-3-carbonitrile]
IC50 [1, 4]: 0.006 µM
EC50 [2]: 0.209 µM

N#Cc1cnc2c(Cl)cc(N[C@@H](c3ccc(F)cc3)c3cn(C4(C(F)(F)F)CC4)nn3)cc2c1Nc1cnc(F)c(F)c1 [Example 417, (S)-8-chloro-4-((5,6-difluoropyridin-3-yl)amino)-6-(((4-fluorophenyl)(1-(1-(trifluoromethyl)cyclopropyl)-1H-1,2,3-triazol-4-yl)methyl)amino)quinoline-3-carbonitrile]
IC50 [1, 4]: 0.074 µM
EC50 [2]: 1.93 µM

N#Cc1cnc2c(Cl)cc(N[C@@H](c3ccc(F)cc3)c3c[nH]nn3)cc2c1NCc1cccs1 [Example 418, (S)-8-chloro-6-(((4-fluorophenyl)(1H-1,2,3-triazol-4-yl)methyl)amino)-4-((thiophen-2-ylmethyl)amino)quinoline-3-carbonitrile]
IC50 [1, 4]: 0.361 µM
EC50 [2]: 4.17 µM

N#Cc1cnc2c(Cl)cc(N[C@@H](c3ccc(F)cc3)c3c[nH]nn3)cc2c1NCc1ccsc1 [Example 419, (S)-8-chloro-6-(((4-fluorophenyl)(1H-1,2,3-triazol-4-yl)methyl)amino)-4-((thiophen-3-ylmethyl)amino)quinoline-3-carbonitrile]
IC50 [1, 4]: 0.392 µM
EC50 [2]: 4.3 µM

N#Cc1cnc2c(Cl)cc(N[C@@H](c3ccc(F)cc3)c3c[nH]nn3)cc2c1NCC1CCOC1 (stereo partly drawn) [Example 420, 8-chloro-6-(((S)-(4-fluorophenyl)(1H-1,2,3-triazol-4-yl)methyl)amino)-4-(((tetrahydrofuran-3-yl)methyl)amino)quinoline-3-carbonitrile]
IC50 [1, 4]: 0.191 µM
EC50 [2]: 5.16 µM

N#Cc1cnc2c(Cl)cc(N[C@@H](c3ccc(F)cc3)c3c[nH]nn3)cc2c1NCC1COC1 [Example 421, (S)-8-chloro-6-(((4-fluorophenyl)(1H-1,2,3-triazol-4-yl)methyl)amino)-4-((oxetan-3-ylmethyl)amino)quinoline-3-carbonitrile]
IC50 [1, 4]: 1.49 µM
EC50 [2]: > 10 µM

N#Cc1cnc2c(Cl)cc(N[C@H](c3c[nH]nn3)c3ccc(F)cc3Cl)cc2c1Nc1cnc(F)c(F)c1 [Example 422, (S)-8-chloro-6-(((2-chloro-4-fluorophenyl)(1H-1,2,3-triazol-4-yl)methyl)amino)-4-((5,6-difluoropyridin-3-yl)amino)quinoline-3-carbonitrile]
IC50 [1, 4]: 0.048 µM
EC50 [2]: 1.35 µM
